Laboratory results taken from ChEMBL document CHEMBL1201862, “PubChem BioAssay data set” (2004).
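Briefly, cells in 96-well plates were exposed to five compound concentrations for 48 h, and endpoints were estimated by linear interpolation. Abbreviation: GI50, concentration required for 50% inhibition of growth.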 The source made the active and inactive calls. Rule as the data show it: active = GI50 up to about 1.1 µM and inactive = higher.

Legend:
Assay in all cases: NCI-60 cell line screen, 48 h
IGROV-1 = system: IGROV-1
NCI-H522 = system: NCI-H522
OVCAR-4 = system: OVCAR-4
HOP-92 = system: HOP-92
HL-60 = system: HL-60
SNB-19 = system: SNB-19
UO-31 = system: UO-31
SF-539 = system: SF-539
CCRF-CEM = system: CCRF-CEM
COLO 205 = system: COLO 205
RXF 393 = system: RXF 393
DLD-1 = system: DLD-1
UACC-257 = system: UACC-257
RPMI-8226 = system: RPMI-8226
OVCAR-8 = system: OVCAR-8
786-0 = system: 786-0
HCC 2998 = system: HCC 2998

Measured: GI50

Nc1nc(O)c2c(ncn2CC(O)CO)n1 (stereo not drawn)
inactive: IGROV-1 > 100 µM | NCI-H522 > 100 µM | OVCAR-4 > 100 µM | HOP-92 > 100 µM | HL-60 > 100 µM | SNB-19 > 100 µM | UO-31 > 100 µM | SF-539 > 100 µM | CCRF-CEM > 100 µM | COLO 205 > 100 µM | RXF 393 > 100 µM | DLD-1 > 100 µM | UACC-257 > 100 µM | RPMI-8226 > 100 µM | OVCAR-8 > 100 µM | 786-0 > 100 µM

CCN(CC)C(=O)N1CCN(C=S)CC1
inactive: IGROV-1 > 100 µM | NCI-H522 > 100 µM | OVCAR-4 > 100 µM | HL-60 > 100 µM | HCC 2998 > 100 µM | SNB-19 > 100 µM | UO-31 > 100 µM | SF-539 > 100 µM | CCRF-CEM > 100 µM | COLO 205 > 100 µM | RXF 393 > 100 µM | DLD-1 > 100 µM | UACC-257 > 100 µM | OVCAR-8 > 100 µM | 786-0 > 100 µM

O=[N+]([O-])c1ccc(-c2ccc(C3=Nn4c(CNc5ccccc5Cl)nnc4SC3)o2)cc1
inactive: IGROV-1 > 100 µM | NCI-H522 > 100 µM | HOP-92 > 100 µM | HL-60 > 100 µM | HCC 2998 > 100 µM | SNB-19 > 100 µM | UO-31 > 100 µM | SF-539 > 100 µM | COLO 205 > 100 µM | DLD-1 > 100 µM | UACC-257 > 100 µM | RPMI-8226 > 100 µM | OVCAR-8 > 100 µM | 786-0 > 100 µM

c1ccc2c(c1)N=C(c1cccc3ccccc13)CC(c1ccc3c(c1)OCO3)S2 (stereo not drawn)
inactive: IGROV-1 > 100 µM | NCI-H522 > 100 µM | OVCAR-4 > 100 µM | HL-60 > 100 µM | HCC 2998 > 100 µM | SNB-19 > 100 µM | UO-31 > 100 µM | SF-539 > 100 µM | CCRF-CEM > 100 µM | COLO 205 > 100 µM | RXF 393 > 100 µM | DLD-1 > 100 µM | UACC-257 > 100 µM | OVCAR-8 > 100 µM | 786-0 > 100 µM

C=CC(Br)(CBr)CCC(Br)C(C)(C)Br (stereo not drawn)
inactive: IGROV-1 15.2 µM | NCI-H522 15.8 µM | OVCAR-4 17.1 µM | HOP-92 15.7 µM | UO-31 15.2 µM | SF-539 15.9 µM | COLO 205 15 µM | RXF 393 14.7 µM | DLD-1 17.2 µM | UACC-257 13.9 µM | RPMI-8226 2.79 µM | OVCAR-8 15.7 µM | 786-0 12.9 µM
